Measurements taken from ChEMBL document CHEMBL1151468, “Selection of SHV extended-spectrum-beta-lactamase-dependent cefotaxime and ceftazidime resistance in Klebsiella pneumoniae requires a plasmid-borne blaSHV gene” (2008).
Calls of active or inactive are those of the source.

Legend:
Klebsiella pneumoniae [1] = test: Antibacterial activity against ESBL-negative Klebsiella pneumoniae isolate 102 at 1 ug/ml by Etest; format: functional, organism-based
Klebsiella pneumoniae [2] = test: Antibacterial activity against ESBL-negative Klebsiella pneumoniae isolate 114 at 1 ug/ml by Etest; format: functional, organism-based
Klebsiella pneumoniae [3] = test: Antibacterial activity against ESBL-negative Klebsiella pneumoniae isolate 113 at 1 ug/ml by Etest; format: functional, organism-based
Klebsiella pneumoniae [4] = test: Antibacterial activity against ESBL-negative Klebsiella pneumoniae isolate 106 at 1 ug/ml by Etest; format: functional, organism-based
Klebsiella pneumoniae [5] = test: Antibacterial activity against ESBL-positive Klebsiella pneumoniae isolate K2 having blaSHV promoter sequence with IS26 insertion by Etest; format: functional
Klebsiella pneumoniae [6] = test: Antibacterial activity against ESBL-positive Klebsiella pneumoniae isolate 110 having upstream IS26 insertion by Etest; format: functional
Klebsiella pneumoniae [7] = test: Antibacterial activity against ESBL-negative Klebsiella pneumoniae isolate 116 by Etest; format: functional
Klebsiella pneumoniae [8] = test: Antibacterial activity against ESBL-negative Klebsiella pneumoniae isolate 105 by Etest; format: functional
Klebsiella pneumoniae [9] = test: Antibacterial activity against ESBL-negative Klebsiella pneumoniae isolate 114 by Etest; format: functional
Klebsiella pneumoniae [10] = test: Antibacterial activity against ESBL-negative Klebsiella pneumoniae isolate 102 by Etest; format: functional
Klebsiella pneumoniae [11] = test: Antibacterial activity against ESBL-negative Klebsiella pneumoniae isolate M1 by Etest; format: functional
Klebsiella pneumoniae [12] = test: Antibacterial activity against ESBL-negative Klebsiella pneumoniae isolate 115 by Etest; format: functional
Klebsiella pneumoniae [13] = test: Antibacterial activity against ESBL-negative Klebsiella pneumoniae isolate 107 by Etest; format: functional
Klebsiella pneumoniae [14] = test: Antibacterial activity against ESBL-negative Klebsiella pneumoniae isolate 109 by Etest; format: functional
Klebsiella pneumoniae [15] = test: Antibacterial activity against ESBL-negative Klebsiella pneumoniae isolate 108 by Etest; format: functional
Klebsiella pneumoniae [16] = test: Antibacterial activity against ESBL-positive Klebsiella pneumoniae isolate 121 having upstream IS26 insertion by Etest; format: functional
Klebsiella pneumoniae [17] = test: Antibacterial activity against ESBL-negative Klebsiella pneumoniae isolate 106 by Etest; format: functional
Klebsiella pneumoniae [18] = test: Antibacterial activity against ESBL-negative Klebsiella pneumoniae isolate 30 by Etest; format: functional
Klebsiella pneumoniae [19] = test: Antibacterial activity against ESBL-positive Klebsiella pneumoniae isolate 120 having upstream IS26 insertion by Etest; format: functional
Klebsiella pneumoniae [20] = test: Antibacterial activity against ESBL-negative Klebsiella pneumoniae isolate 113 by Etest; format: functional
Klebsiella pneumoniae [21] = test: Antibacterial activity against ESBL-positive Klebsiella pneumoniae isolate 119 having blaSHV promoter sequence with IS26 insertion by Etest; format: functional
Klebsiella pneumoniae [22] = test: Antibacterial activity against ESBL-negative Klebsiella pneumoniae isolate 104 by Etest; format: functional
Klebsiella pneumoniae [23] = test: Antibacterial activity against ESBL-positive Klebsiella pneumoniae isolate J5 having blaSHV promoter sequence with IS26 insertion by Etest; format: functional
Klebsiella pneumoniae [24] = test: Antibacterial activity against ESBL-positive Klebsiella pneumoniae isolate J4 having blaSHV promoter sequence with IS26 insertion by Etest; format: functional
Klebsiella pneumoniae [25] = test: Antibacterial activity against ESBL-negative Klebsiella pneumoniae isolate 85 by Etest; format: functional

CC(C)(O/N=C(\C(=O)N[C@@H]1C(=O)N2C(C(=O)[O-])=C(C[n+]3ccccc3)CS[C@H]12)c1csc(N)n1)C(=O)O
active: Activity (Klebsiella pneumoniae [1]) | Activity (Klebsiella pneumoniae [2]) | Activity (Klebsiella pneumoniae [3]) | Activity (Klebsiella pneumoniae [4])

CO/N=C(\C(=O)N[C@@H]1C(=O)N2C(C(=O)O)=C(COC(C)=O)CS[C@H]12)c1csc(N)n1 [CEFOTAXIME]
> 16 mg/L: MIC (Klebsiella pneumoniae [5]) | MIC (Klebsiella pneumoniae [6]) | MIC (Klebsiella pneumoniae [7]) | MIC (Klebsiella pneumoniae [8]) | MIC (Klebsiella pneumoniae [9]) | MIC (Klebsiella pneumoniae [14]) | MIC (Klebsiella pneumoniae [16]) | MIC (Klebsiella pneumoniae [17]) | MIC (Klebsiella pneumoniae [18]) | MIC (Klebsiella pneumoniae [19]) | MIC (Klebsiella pneumoniae [20]) | MIC (Klebsiella pneumoniae [21]) | MIC (Klebsiella pneumoniae [23]) | MIC (Klebsiella pneumoniae [24]) | MIC (Klebsiella pneumoniae [25])
6 mg/L: MIC (Klebsiella pneumoniae [15])
8 mg/L: MIC (Klebsiella pneumoniae [12])
3 mg/L: MIC (Klebsiella pneumoniae [10]) | MIC (Klebsiella pneumoniae [22])
0.5 mg/L: MIC (Klebsiella pneumoniae [13])
4 mg/L: MIC (Klebsiella pneumoniae [11])
